Source: ChEMBL document CHEMBL1143039, “Further modification on phenyl acetic acid based quinolines as liver X receptor modulators” (Bioorg Med Chem, 2007)

How the values were obtained:
[1] = biological target: T1, Oxysterols receptor LXR-alpha (Homo sapiens, UniProt Q13133); assay: biochemical
T1 sequence (Q13133 whole entry): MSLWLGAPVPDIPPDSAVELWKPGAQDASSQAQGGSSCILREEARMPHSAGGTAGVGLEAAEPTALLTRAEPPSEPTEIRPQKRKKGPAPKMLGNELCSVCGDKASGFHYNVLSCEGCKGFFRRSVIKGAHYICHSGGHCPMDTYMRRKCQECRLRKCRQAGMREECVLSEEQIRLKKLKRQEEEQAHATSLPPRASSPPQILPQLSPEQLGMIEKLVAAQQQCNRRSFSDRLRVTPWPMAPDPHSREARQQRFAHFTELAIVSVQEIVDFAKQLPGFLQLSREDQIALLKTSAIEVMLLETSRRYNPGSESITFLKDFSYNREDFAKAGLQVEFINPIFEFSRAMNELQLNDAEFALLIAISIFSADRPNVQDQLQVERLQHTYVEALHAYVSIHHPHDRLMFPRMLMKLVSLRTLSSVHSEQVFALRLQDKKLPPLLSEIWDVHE
Description: Displacement of [3H]T-0901317 from human recombinant LXRalpha expressed in CHO cells

[2] = biological target: T2, Oxysterols receptor LXR-beta (Homo sapiens, UniProt P55055); assay: biochemical
T2 sequence (P55055 whole entry): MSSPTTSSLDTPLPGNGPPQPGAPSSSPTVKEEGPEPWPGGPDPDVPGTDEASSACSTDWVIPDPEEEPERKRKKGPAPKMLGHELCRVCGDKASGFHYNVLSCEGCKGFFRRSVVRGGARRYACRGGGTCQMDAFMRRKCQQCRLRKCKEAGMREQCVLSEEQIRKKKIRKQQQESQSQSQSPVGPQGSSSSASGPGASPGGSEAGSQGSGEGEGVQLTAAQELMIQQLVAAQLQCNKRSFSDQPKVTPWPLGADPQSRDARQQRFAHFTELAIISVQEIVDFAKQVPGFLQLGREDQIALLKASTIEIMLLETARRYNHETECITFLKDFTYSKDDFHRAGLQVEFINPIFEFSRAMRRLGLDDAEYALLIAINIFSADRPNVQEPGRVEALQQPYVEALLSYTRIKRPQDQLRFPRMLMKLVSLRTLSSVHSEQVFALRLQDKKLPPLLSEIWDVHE
Description: Displacement of [3H]T0901317 from human recombinant LXRbeta expressed in CHO cells

[3] = Clearance in C57BL/6 mouse at 1 mg/kg, iv; assay type: ADME, organism-based; parameters: dose 1 mg/kg, route intravenous; settings: in vivo
[4] = Half life in C57BL/6 mouse at 1 mg/kg, iv; assay type: ADME, organism-based; parameters: dose 1 mg/kg, route intravenous; settings: in vivo
[5] = biological target: T3, Peroxisome proliferator-activated receptor gamma (Homo sapiens) (UniProt P37231); assay: Agonist activity at human recombinant PPARgamma by GAL4 transactivation assay relative to rosiglitazone; assay type: functional
T3 sequence (whole entry): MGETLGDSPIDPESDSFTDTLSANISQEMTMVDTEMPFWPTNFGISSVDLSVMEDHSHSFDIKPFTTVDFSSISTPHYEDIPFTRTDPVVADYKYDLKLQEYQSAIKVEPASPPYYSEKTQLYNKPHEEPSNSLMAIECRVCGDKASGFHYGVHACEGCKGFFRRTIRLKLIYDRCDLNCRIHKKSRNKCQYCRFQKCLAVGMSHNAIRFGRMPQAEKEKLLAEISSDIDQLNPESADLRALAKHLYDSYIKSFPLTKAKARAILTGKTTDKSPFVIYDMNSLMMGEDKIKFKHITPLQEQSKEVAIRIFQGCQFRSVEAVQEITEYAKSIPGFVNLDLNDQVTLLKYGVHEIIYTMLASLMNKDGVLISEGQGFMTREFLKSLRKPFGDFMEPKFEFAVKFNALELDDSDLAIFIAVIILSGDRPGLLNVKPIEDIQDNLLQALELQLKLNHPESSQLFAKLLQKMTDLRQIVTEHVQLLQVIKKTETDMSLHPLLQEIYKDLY

[6] = Bioavailability in C57BL/6 mouse at 10 mg/kg, po; assay type: ADME, organism-based; settings: in vivo
[7] = biological target: T4, Peroxisome proliferator-activated receptor gamma (Homo sapiens, UniProt P37231); assay: Agonist activity at human recombinant PPARgamma by GAL4 transactivation assay; assay type: functional
T4 sequence (P37231 whole entry): T3 sequence (whole entry)

Mus musculus [8] = assay: Reduction in aortic arch lesion area in C57BL/6 ApoE knockout mouse at 10 mg/kg, po for 12 weeks; assay type: functional, Pharyngeal arch artery
[9] = biological target: T2, Oxysterols receptor LXR-beta
Description: Agonist activity at human recombinant LXRbeta expressed in CHO cells

[10] = AUC (infinity) in C57BL/6 mouse at 10 mg/kg, po; assay type: ADME, organism-based; parameters: time infinity, dose 10 mg/kg, route oral; settings: plasma
Mus musculus [11] = assay: Increase in plasma triglyceride level in C57BL/6 ApoE knockout mouse at 10 mg/kg, po for 12 weeks; assay type: functional
[12] = Stability in mouse liver microsomes; assay type: ADME, Microsome
[13] = biological target: T5, Peroxisome proliferator-activated receptor alpha (Homo sapiens) (UniProt Q07869); assay: Agonist activity at human recombinant PPARalpha by GAL4 transactivation assay relative to WY-14643; assay type: functional
T5 sequence (whole entry): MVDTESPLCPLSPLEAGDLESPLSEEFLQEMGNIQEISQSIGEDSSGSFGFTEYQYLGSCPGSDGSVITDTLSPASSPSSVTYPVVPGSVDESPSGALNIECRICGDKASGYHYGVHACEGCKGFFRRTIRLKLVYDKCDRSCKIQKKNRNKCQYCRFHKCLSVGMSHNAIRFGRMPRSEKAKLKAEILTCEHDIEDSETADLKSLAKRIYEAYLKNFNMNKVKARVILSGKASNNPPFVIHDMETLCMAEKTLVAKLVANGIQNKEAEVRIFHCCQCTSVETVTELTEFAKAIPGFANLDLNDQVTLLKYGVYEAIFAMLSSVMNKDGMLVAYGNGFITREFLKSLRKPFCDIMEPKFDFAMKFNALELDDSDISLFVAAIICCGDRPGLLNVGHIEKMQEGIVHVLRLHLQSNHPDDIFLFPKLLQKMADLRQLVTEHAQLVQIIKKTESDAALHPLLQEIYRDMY

[14] = biological target: T6, Oxysterols receptor LXR-beta (Homo sapiens) (UniProt P55055); assay: Agonist activity at human recombinant LXRbeta expressed in Huh7 cells by GAL4 transactivation assay relative to TO901317; assay type: functional, cell-based; settings: Huh-7
T6 sequence (whole entry): T2 sequence (P55055 whole entry)

[15] = Cmax in C57BL/6 mouse at 10 mg/kg, po; assay type: ADME, organism-based; parameters: dose 10 mg/kg, route oral; settings: in vivo
Mus musculus [16] = assay: Reduction of aortic arch lesion in C57BL/6 ApoE knockout mouse at 10 mg/kg, po for 12 weeks; assay type: functional, Pharyngeal arch artery; parameters: scale not given: the % may be the effect or the level left
[17] = Half life in C57BL/6 mouse at 10 mg/kg, po; assay type: ADME, organism-based; parameters: dose 10 mg/kg, route oral; settings: in vivo
[18] = Tmax in C57BL/6 mouse at 10 mg/kg, po; assay type: ADME, organism-based; parameters: dose 10 mg/kg, route oral; settings: in vivo
[19] = biological target: T1, Oxysterols receptor LXR-alpha; assay: Agonist activity at human recombinant LXRalpha expressed in Huh7 cells by GAL4 transactivation assay; assay type: functional, cell-based, Huh-7
Liver microsomes = assay: Stability in human liver microsomes; assay type: ADME, Microsome
THP-1 [20] = assay: Increase in ABCA1 gene expression in THP1 cells relative to TO901317; assay type: functional, Homo sapiens
THP-1 [21] = assay: Increase in ABCA1 gene expression in THP1 cells; assay type: functional, cell-based; settings: Homo sapiens
[22] = biological target: T7, Peroxisome proliferator-activated receptor alpha (Homo sapiens, UniProt Q07869); assay: Agonist activity at human recombinant PPARalpha by GAL4 transactivation assay; assay type: functional
T7 sequence (Q07869 whole entry): T5 sequence (whole entry)

Huh-7 [23] = assay: Increase in SREBP1c gene expression in Huh7 cells relative to TO901317; assay type: functional, Homo sapiens
[24] = Volume of distribution in C57BL/6 mouse at 1 mg/kg, iv; assay type: ADME, organism-based; parameters: dose 1 mg/kg, route intravenous; settings: in vivo, read-out: Vss
[25] = biological target: T8, Peroxisome proliferator-activated receptor delta (Homo sapiens, UniProt Q03181); assay: Agonist activity at human recombinant PPARdelta by GAL4 transactivation assay; assay type: functional
T8 sequence (Q03181 whole entry): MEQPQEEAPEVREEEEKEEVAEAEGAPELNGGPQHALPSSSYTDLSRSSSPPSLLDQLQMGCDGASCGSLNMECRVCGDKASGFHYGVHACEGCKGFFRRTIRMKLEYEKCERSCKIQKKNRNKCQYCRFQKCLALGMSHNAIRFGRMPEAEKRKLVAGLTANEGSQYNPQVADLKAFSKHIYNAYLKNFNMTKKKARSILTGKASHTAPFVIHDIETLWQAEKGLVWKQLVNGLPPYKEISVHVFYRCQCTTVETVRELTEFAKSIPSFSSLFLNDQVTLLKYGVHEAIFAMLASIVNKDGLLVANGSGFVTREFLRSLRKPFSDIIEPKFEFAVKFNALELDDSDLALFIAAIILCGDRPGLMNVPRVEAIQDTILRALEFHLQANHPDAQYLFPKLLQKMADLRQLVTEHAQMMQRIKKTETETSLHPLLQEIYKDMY

Huh-7 [26] = assay: Increase in SREBP1c gene expression in Huh7 cells; assay type: functional, cell-based; settings: Homo sapiens
[27] = biological target: T2, Oxysterols receptor LXR-beta; assay: Agonist activity at human recombinant LXRbeta expressed in Huh7 cells by GAL4 transactivation assay; assay type: functional, cell-based, Huh-7
[28] = biological target: T9, Oxysterols receptor LXR-alpha (Homo sapiens) (UniProt Q13133); assay: Agonist activity at human recombinant LXRalpha expressed in Huh7 cells by GAL4 transactivation assay relative to TO901317; assay type: functional, cell-based; settings: Huh-7
T9 sequence (whole entry): T1 sequence (Q13133 whole entry)

| Structure (SMILES) | IC50 [1] [nM] | IC50 [2] [nM] | clearance [3] [mL/min/kg] | half-life [4] [h] | Activity [5] [%] | bioavailability [6] [%] | EC50 [7] [nM] | aortic arch lesion area (Mus musculus [8]) [%] | EC50 [9] [nM] | AUC(0-inf) [10] [ng·h/mL] | Activity (Mus musculus [11]) [mg/dL] | Stability [12] | Activity [13] [%] | Activity [14] [%] | Cmax [15] [ng/mL] | Activity (Mus musculus [16]) [%] | half-life [17] [h] | Tmax [18] [h] | EC50 [19] [nM] | Stability (Liver microsomes) | also measured |
| --- | --- | --- | --- | --- | --- | --- | --- | --- | --- | --- | --- | --- | --- | --- | --- | --- | --- | --- | --- | --- | --- |
| Cc1cccc2c(-c3cccc(NCc4ccc(CC(=O)O)cc4)c3)c(Cc3ccccc3)cnc12 | 21 | 5 | 25 | 1.6 | 46.6 | 53 | 1030 | 4.09 | 90 | 3580 | 15.2 | Stable | 7.5 | 75 | 4190 | 57 | 1.2 | 0.25 | 467 | Stable | Activity (THP-1 [20]): 139%; EC50 (THP-1 [21]): 438 nM; EC50 [22]: 1770 nM; Activity (Huh-7 [23]): 114%; Vd [24]: 1.2 L/kg; EC50 [25]: 1970 nM; EC50 (Huh-7 [26]): 51.4 nM; EC50 [27]: 267 nM; Activity [28]: 101% |
| O=C(O)Cc1ccc(CNc2cccc(-c3c(Cc4ccccc4)cnc4c(Cl)cccc34)c2)cc1 | 5 | 1.4 | 37 | 1.8 | 50.6 | 57 | 506 | 4.47 | 23 | 2580 | 64.56 | Stable | 12 | 67 | 2500 | 53 | 1.2 | 0.25 | 121 | Stable | Activity (THP-1 [20]): 162%; EC50 (THP-1 [21]): 81 nM; EC50 [22]: 2050 nM; Activity (Huh-7 [23]): 137%; Vd [24]: 1.8 L/kg; EC50 [25]: 631 nM; EC50 (Huh-7 [26]): 75 nM; EC50 [27]: 54 nM; Activity [28]: 89% |
| O=C(O)Cc1cccc(OCCCN(Cc2cccc(C(F)(F)F)c2Cl)CC(c2ccccc2)c2ccccc2)c1 |  |  |  |  |  |  |  | 1.99 |  |  | 2.95 |  |  |  |  | 79 |  |  |  |  |  |

Continued, in another order:

| IC50 [1] [nM] | IC50 [2] [nM] | Structure (SMILES) | clearance [3] [mL/min/kg] | half-life [4] [h] | Activity [5] [%] | bioavailability [6] [%] | EC50 [7] [nM] | aortic arch lesion area (Mus musculus [8]) [%] | EC50 [9] [nM] | AUC(0-inf) [10] [ng·h/mL] | Activity (Mus musculus [11]) [mg/dL] | Stability [12] | Activity [13] [%] | Activity [14] [%] | Cmax [15] [ng/mL] | Activity (Mus musculus [16]) [%] | half-life [17] [h] | Tmax [18] [h] | EC50 [19] [nM] | Stability (Liver microsomes) | also measured |
| --- | --- | --- | --- | --- | --- | --- | --- | --- | --- | --- | --- | --- | --- | --- | --- | --- | --- | --- | --- | --- | --- |
| > 10000 | > 10000 | NC(=O)c1cnc2c(C(F)(F)F)cccc2c1-c1cccc(NCc2ccc(CC(=O)O)cc2)c1 |  |  |  |  |  |  |  |  |  |  |  |  |  |  |  |  |  |  |  |
| > 10000 | > 10000 | O=C(O)/C=C/c1ccc(CNc2cccc(-c3c(C(=O)c4ccccc4)cnc4c(C(F)(F)F)cccc34)c2)cc1 |  |  |  |  |  |  |  |  |  |  |  |  |  |  |  |  |  |  |  |
